Where no end group is shown, it is not given here.
Key:
Clostripain = molecular target: T1, Clostripain (Hathewaya histolytica, UniProt P09870); experiment: clostripain assay (BAPNA hydrolysis); type: biochemical, Clostridium histolyticum; settings: read-out: Clostripain: IC50 (μM) for inhibition of Clostripain
T1 construct: purchased Sigma Chemical Corp., St. Louis, Mo
Description: Clostripain from Clostridium histolyticum (Sigma Chemical Corp., St. Louis, Mo.) was dissolved in deionized water to a concentration of 1 mg/mL (300 units/mg) and activated with the addition of 10 mmol/L DTT. To measure its hydrolytic activity, clostripain (6 units) was added to […] Hepes buffer, pH 7.5, containing 80 gmol/L BAPNA (benzoyl-arginine-p-nitroanilide), together with 5.6 μmol/L of histatin peptide inhibitor. As controls, assays were performed in the absence of any histatin peptide inhibitor. The activity was monitored continuously at 405 nm using a Molecular Devices VMax microtitre plate reader. The activities were determined from the maximum rates of substrate hydrolysis. Assays were done in duplicate, and the means normalized to the controls.

[1] = system: C. albicans blastoconidia; settings: blastoconidia, 1 h at 37° C., pH 7.4
Text: C. albicans is a dimorphic yeast. It can exist in a yeast or blastoconidial form, which upon germination develops into the hyphal or germinated form. While the germinated form is considered to be more invasive, most of the C. albicans isolates harvested from the oral cavities of healthy individuals appear to be in the blastoconidial form. (Arendorf, T. M. et al. (1980), Arch. Oral Biol. 25:1-10; Gow, N.A.R. et al. (1987), Criti. Rev. Microbiol. 15:73-78; Odds, F. C. (1988), Candida and Candidosis, 2nd ed., Bailliere Tindall, London, England). Anti-fungal activity of synthetic histatin 5, histatin-based peptide 113, peptides based on portions of the amino acid sequences of histatin-based peptide 113 and peptides derived from histatin-based peptide 113 with specified amino acid substitutions was measured in assays designed to test the effectiveness of the peptides against the blastoconidia form of Candida (Table 1). These assays, which measure killing of blastoconidia of C. albicans, are described in Xu et al., which is herein incorporated by reference. (Xu, T. et al. (1991), Infect. Immun. 59(8):2549-2554).
A well-described strain of C. albicans was used in the bioassay. This strain, ATCC 44505, was originally isolated from the human oral cavity. Cultures were stored at 4° C. on Sabouraud dextrose agar plates (Difco Laboratories, Detroit, Mich.) until use. Stationary phase growth cells were obtained following growth at 30° C. for 18 h on Sabouraud dextrose agar plates. Colonies were harvested and suspended in 10 mM potassium phosphate buffer (PPB), pH 7.4.
To initiate log phase growth, an aliquot of stock C. albicans was suspended in Sabouraud dextrose broth (Difco) and incubated at 30° C. in a shaking water bath. The growth phase was determined by taking aliquots of the culture at one hour intervals to monitor the optical density (O.D.) at 560 nm. […] Log phase cells were harvested and utilized in the blastoconidia killing assay in a manner identical to that described for stationary phase cells. A final concentration of 10^5 cells/ml (either stationary or log phase fungus) was used in all assays.
The standard suspension buffer utilized in the blastospore killing assay was 0.01M PPB, pH 7.4. An alternate suspension buffer, N-2-hydroxyethylpiperazine-N'-2-ethanesulfonic acids (HEPES; Sigma Chemical Co., St. Louis, Mo.), pH 7.4, can also be utilized.
a. For the killing of blastoconidia assay, 50 μl aliquots of cells (2×10^5 cells/ml) diluted in suspension buffer were allowed to attach to a polystyrene 96-well micro-titer plate (COSTAR, Cambridge, Mass.) for 15 min at room temperature, and then incubated with an equal volume of a histatin or histatin peptide in suspension buffer for 1 h at 37° C. Controls were carried out in the absence of the histatin or histatin peptide. After incubation, wells were washed three times by centrifugation at 1,000 xg for 5 min and covered with aliquots of molten Sabouraud dextrose broth (Difco) containing 2% agarose (Sigma) at 45° C. The plate was then incubated at 30° C. for 8 h. Under such conditions, live cells will divide and begin to form colonies, while dead cells will remain as single cells. To determine the percentage of blastoconidia killed, a total of 100 single cells and/or colonies were counted under a Nikon inverted microscope at 400× magnification and the extent of killing was calculated using the formula: [1-(number of colonies in treated sample)/(number of colonies in control)]×100%.
Data were obtained by calculating the mean and standard deviation from triplicate assays.

[2] = system: Porphyromonas gingivalis strain A7A1-28; experiment: microdilution bacteriostatic assay (P. gingivalis growth inhibition); type: cell-based
Description: (a) The bacteria used in one investigation, Porphyromonas gingivalis strain A7A1-28, is a typical key pathogenic organism associated with destructive periodontal diseases. The bacteria were multiply subcultured in Enriched Todd Hewitt broth (ETHB, Difco Lab., Detroit, Mich.). Microorganisms were stored in the same broths containing 20% and 50% glycerol, at -20° C. and -70° C., respectively. These served as stock cultures from which all preparations originated.
Working stock cultures were maintained by weekly transfer to Brain Heart Infusion Anaerobic Sheep Blood Agar plates (BHIA, Becton Dickinson and Co., Cockeysville, Md.), and Trypticase Soy Anaerobic Sheep Blood Agar plates (TSA, Becton Dickinson and Co., Cockeysville, Md.). Plates were incubated for 3 to 4 days under strictly anaerobic conditions. For the bacteriostatic assay, bacteria were collected from plates, inoculated into the aforementioned broth and grown at 37° C., under strictly anaerobic conditions for 24 to 48 hours.
A modification of the typical microdilution assay (Rotilie et al., 1975) for the determination of minimal inhibitory concentration (MIC) of antimicrobial agents was utilized to investigate the bacteriostatic activity of the peptides. A standardized bacterial inoculum (P. gingivalis) was exposed to serially diluted antimicrobial peptides in an enriched broth medium that was suitable for the growth of anaerobic bacteria. The test was adapted for use in the 96-well microtiter plates. […] The modification introduced here was based on the spectrophotometric reading of the microtiter plate after incubation.
Microorganisms from cultures maintained in the aforementioned plates were inoculated into 5 ml of the above-mentioned broths and cultured overnight at 37° C. under strictly anaerobic conditions with continuous agitation on a minishaker (IKA-Labortechnik, Staufen i. Br., Germany). The bacteria were grown until reaching the late log phase and were then suspended in the same broths to an optical density (O.D.) of 0.1 at 560 nm. The peptides were diluted in 0.01M phosphate buffered saline (PBS), pH 7. Forty μl aliquots of peptide dilutions were added in each well of a U-bottom microtiter plate (Costar, Cambridge, Mass.) to give final concentrations of 2000, 1000, 500 and 250 μM. Twenty μl of bacterial inoculum was added to all the wells. Finally, 100 μl of the suitable broth were added to each well. The optical density of the wells of the microtiter plate was determined using a microplate reader set at 550 nm and the plate was then incubated under strictly anaerobic conditions for 24 hours. Controls were made by replacing the peptide dilutions with PBS alone. After the incubation, the mixtures in each well were mixed manually to resuspend sedimented bacteria and the plate was read again. The experiments were conducted twice every time. The biologic activity was calculated according to the formula:
100-[[(Fin ODexp-In ODexp)/(Fin ODctr-In ODctr)]×100]
In addition, the % increase in time to reach midlog phase growth was calculated.
The data presentation represent the means (±SEM) of at least 2 separate experiments.

[3] = system: P. gingivalis hemagglutination of erythrocytes; experiment: histatin peptide inhibition of hemagglutination assay; type: cell-based, Porphyromonas gingivalis; settings: 2 hours at room temperature, visual examination
Description: The P. gingivalis strain of Section C.(1) was also used for the hemagglutination assays. The bacterial growth and culture conditions were also the same as those described in Section C.(1).
A classic assay was utilized to determine the hemagglutination potential of the P. gingivalis strain. Microorganisms were inoculated into BFB broth and cultured overnight, for approximately 24 hours at 37° C. under strictly anaerobic conditions with continuous agitation on a minishaker (IKA-Labortechnik, Staufen i. Br., Germany). The bacteria were harvested by centrifugatin at 3,000 r.p.m. for 20 min, at 4° C., washed twice in 0.01M phosphate buffered saline (PBS), pH 7.4, and suspended in the same buffer to an optical density of 1.0 at 550 nm. […] One ml of blood was drawn each time, washed twice in PBS at 1,000 r.p.m. for 10 min at 4° C. and suspended in the same buffer at a 2% (v/v) final concentration. Fifty μl of the bacterial suspension were serially diluted in PBS (two-fold steps) in a 96-well U-bottom microplate (Costar, Cambridge, Mass.). Fifty μl of the erythrocyte suspension were added to each well. Controls without bacteria or erythrocytes were included. The microplate was slightly shaken and incubated at room temperature for 2 hours. Visible examination on a white background was used to determine hemagglutination. The amount of hemagglutination was rated as none,(-), moderate (+/-), or strong (+). Erythrocytes in control wells with PBS precipitated to the center of the well, whereas erythrocyte-bacteria aggregates precipitated at the periphery of the bottom. The hemagglutination titer was expressed as the reciprocal of the highest dilution of the bacterial suspension providing visible hemagglutination.
Preparation of erythrocyte and bacterial suspensions were the same as for the hemagglutination assay. Fifty μl of histatin peptide solutions were diluted in PBS in a U-bottom microplate, at various two-fold concentrations with 600 nmole/ml being the highest. The bacterial concentration utilized was normally twice the minimal concentration which gave strong hemagglutination. Equal volumes of the bacterial suspension were poured into the wells containing the histatin peptides. Finally, 50 μl of erythrocyte suspension were added in each well. The microplate was slightly shaken and incubated at room temperature for 2 hours. Controls were made by replacement of the peptide dilutions with PBS only. The experiments were conducted at least twice. The lowest histatin peptide concentration without hemagglutination (complete inhibition) was determined upon visual examination. The highest final histatin peptide concentration utilized was 100 nmole/ml.

T1 sequence (P09870 191-526): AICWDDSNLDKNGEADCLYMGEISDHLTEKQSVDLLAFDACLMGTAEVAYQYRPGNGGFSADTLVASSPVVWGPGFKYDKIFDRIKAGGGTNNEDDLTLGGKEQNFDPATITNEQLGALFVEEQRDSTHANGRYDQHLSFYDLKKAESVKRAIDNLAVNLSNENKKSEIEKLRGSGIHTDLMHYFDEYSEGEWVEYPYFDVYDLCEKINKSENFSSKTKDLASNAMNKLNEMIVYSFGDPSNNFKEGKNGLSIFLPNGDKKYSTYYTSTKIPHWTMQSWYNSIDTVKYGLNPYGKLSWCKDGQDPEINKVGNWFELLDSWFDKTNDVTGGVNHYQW
T1 sequence (P09870 51-181): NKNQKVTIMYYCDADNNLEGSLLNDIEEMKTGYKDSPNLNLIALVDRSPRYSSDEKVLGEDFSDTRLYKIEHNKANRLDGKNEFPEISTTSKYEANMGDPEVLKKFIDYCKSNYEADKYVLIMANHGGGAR

| Compound | IC50 (Clostripain) [µM] | C. albicans: LD50 (μM) for % killing [1] [µM] | P. gingivalis: % inhibition at 500 μM dose (scoring) ([2]; 500 μM dose, highest response seen used in the scoring) | Hemagglutination: lowest dose (μM) at which hemagglutination was observed using P. Gingivalis [3] [µM] | P. gingivalis: % increase in time to reach mid logphase growth (0.2 OD) ([2]; 2 mM dose) [%] |
| --- | --- | --- | --- | --- | --- |
| C[C@H](NC(=O)[C@H](Cc1c[nH]cn1)NC(=O)[C@H](CO)NC(=O)[C@@H](N)CC(=O)O)C(=O)N[C@@H](CCCCN)C(=O)N[C@@H](CCCNC(=N)N)C(=O)N[C@@H](Cc1c[nH]cn1)C(=O)N[C@@H](Cc1c[nH]cn1)C(=O)NCC(=O)N[C@@H](Cc1ccc(O)cc1)C(=O)N[C@@H](CCCCN)C(=O)N[C@@H](CCCNC(=N)N)C(=O)N[C@@H](CCCCN)C(=O)N[C@@H](Cc1ccccc1)C(=O)N[C@@H](Cc1c[nH]cn1)C(=O)N[C@@H](CCC(=O)O)C(=O)N[C@@H](CCCCN)C(=O)N[C@@H](Cc1c[nH]cn1)C(=O)N[C@@H](Cc1c[nH]cn1)C(=O)N[C@@H](CO)C(=O)N[C@@H](Cc1c[nH]cn1)C(=O)N[C@@H](CCCNC(=N)N)C(=O)NCC(=O)N[C@@H](Cc1ccc(O)cc1)C(=O)O [SynHis5, reference compound] | < 6.2 | 3.0 |  |  |  |
| KRHHGYKRKFHEKHH [peptide 105] |  | 5.0 | +++ (+++50-80%) | 6.25 |  |
| KRHHGYKRKFHEKHHSHR [peptide 103] |  | 4.5 |  | 1.56 | 56.6 |
| KRHHGYKRKFHEKHHSHRGYR [peptide 101] |  | 3.5 |  | 1.56 |  |

— patent US5912230A, “Anti-fungal and anti-bacterial histatin-based peptides” (priority 1998, dated 1999)
